The target in one assay is NLRP3 inflammasome (Homo sapiens, UniProt Q96P20). Briefly: NLRP3 inflammasome activation in THP1 macrophages (LPS priming, nigericin), IL-1β AlphaLISA. In kind it is cell-based. The settings on record: PMA-differentiated THP1, LPS 20 ng/ml 3 hrs, compound 1 hr, Nigericin 6.7 uM 3 hrs, supernatant.
The test system of a further assay is IL-6. Nature of the assay: IL-6 release from LPS-primed, nigericin-treated THP1 macrophages, Hu IL-6 AlphaLISA. As to conditions: Homo sapiens, THP-1; PMA-differentiated THP1, LPS 20 ng/ml 3 hrs, compound 1 hr, Nigericin 6.7 uM 3 hrs, supernatant. It is filed as cell-based. Background: Bead proximity is the source of the signal in Alpha formats.

Sequence of NLRP3 inflammasome (Q96P20 whole entry): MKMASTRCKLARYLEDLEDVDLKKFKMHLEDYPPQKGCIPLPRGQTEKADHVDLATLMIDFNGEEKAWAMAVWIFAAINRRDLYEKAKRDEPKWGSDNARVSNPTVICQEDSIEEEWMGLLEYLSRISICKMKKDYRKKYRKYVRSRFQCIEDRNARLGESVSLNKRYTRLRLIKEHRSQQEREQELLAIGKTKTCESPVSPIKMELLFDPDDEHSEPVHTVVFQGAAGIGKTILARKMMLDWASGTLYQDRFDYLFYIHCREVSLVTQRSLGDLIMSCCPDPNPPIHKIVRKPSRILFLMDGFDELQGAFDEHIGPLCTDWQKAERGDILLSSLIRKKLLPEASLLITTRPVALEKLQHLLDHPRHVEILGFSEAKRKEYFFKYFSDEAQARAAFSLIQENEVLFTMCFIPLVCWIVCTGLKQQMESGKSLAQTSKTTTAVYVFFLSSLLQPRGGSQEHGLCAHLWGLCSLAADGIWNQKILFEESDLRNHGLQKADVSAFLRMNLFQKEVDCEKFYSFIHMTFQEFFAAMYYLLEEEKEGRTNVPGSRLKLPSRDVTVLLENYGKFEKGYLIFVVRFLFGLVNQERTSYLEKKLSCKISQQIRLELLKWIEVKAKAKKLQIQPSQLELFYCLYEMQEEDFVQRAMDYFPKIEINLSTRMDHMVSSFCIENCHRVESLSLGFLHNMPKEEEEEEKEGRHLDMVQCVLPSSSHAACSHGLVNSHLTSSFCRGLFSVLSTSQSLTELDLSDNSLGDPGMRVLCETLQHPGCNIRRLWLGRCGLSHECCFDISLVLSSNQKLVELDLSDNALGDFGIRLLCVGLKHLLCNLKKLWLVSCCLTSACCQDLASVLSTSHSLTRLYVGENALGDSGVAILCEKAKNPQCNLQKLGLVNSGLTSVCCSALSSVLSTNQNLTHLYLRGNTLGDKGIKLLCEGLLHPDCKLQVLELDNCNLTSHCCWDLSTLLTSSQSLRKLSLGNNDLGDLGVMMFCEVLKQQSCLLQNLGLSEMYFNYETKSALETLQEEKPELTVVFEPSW

The term IC50 denotes the midpoint of a concentration-inhibition curve. Consider `Cc1cc(-c2ccc(Cl)cc2F)nnc1N[C@@H]1CCCN(C)C1` [compound 149], for which the values for the IC50 at NLRP3 inflammasome and in the assay with IL-6 were 0.1 to 0.5 µM and 5 to 10 µM, respectively.

Consider `Cc1cc(N[C@@H]2CCCN(C)C2)nnc1-c1ccc(C2CC2)cc1` [compound 93], for which the IC50 on NLRP3 inflammasome is 0.01 to 0.05 µM; with IL-6 it was > 10 µM.

As for `Cc1cc(N[C@@H]2CCCN(CC3CC3)C2)nnc1-c1ccc(F)cc1` [compound 70], the results for the IC50 against NLRP3 inflammasome and in the assay on IL-6 were ≤ 0.01 µM and > 10 µM, respectively.

Regarding `CCN1C[C@H](F)C[C@@H](Nc2cc(C)c(-c3ccc(Cl)cc3)nn2)C1` [compound 151], the IC50 against NLRP3 inflammasome is > 1 µM; in the assay on IL-6, 1 to 5 µM.

`Cc1cc(F)ccc1-c1cc(C)c(N[C@@H]2CCCN(C)C2)nn1` [compound 133]: the concentration for half-maximal inhibition (IC50) against NLRP3 inflammasome is 0.01 to 0.05 µM; in the assay on IL-6, > 10 µM.

Regarding `Cc1cc(N[C@@H]2CCCN(C)C2)nnc1-c1ccccc1` [compound 54], the IC50 at NLRP3 inflammasome was > 1 µM; in the assay on IL-6, > 10 µM.

Turning to `Cc1cc(-c2ccc(C#N)cc2)nnc1N[C@@H]1CCCN(C)C1` [compound 80], the values for the IC50 against NLRP3 inflammasome and in the assay with IL-6 were > 1 µM and > 10 µM, respectively.

`Cc1cc(-c2ccc(C3CC3)cc2)nnc1N[C@@H]1CCCN(C)C1` [compound 94]: the IC50 on NLRP3 inflammasome was > 1 µM; with IL-6, > 10 µM.

For `Cc1cc(N[C@@H]2C[C@@H](F)CN(C(C)C)C2)nnc1-c1ccc(C(F)(F)F)cc1` [compound 144], the IC50 against NLRP3 inflammasome fell in the range of 0.1 to 0.5 µM; in the assay on IL-6, 5 to 10 µM.

On to `Cc1cc(N[C@@H]2CCCNC2)nnc1-c1ccc(C(F)(F)F)cc1` [compound 22], for which the values for the 50% inhibitory concentration (IC50) at NLRP3 inflammasome and in the assay on IL-6 were 0.05 to 0.1 µM and > 10 µM, respectively.

For `Cc1cc(N[C@@H]2CCCN(C)C2)nnc1-c1ccc(Cl)cc1C#N` [compound 168], the IC50 on NLRP3 inflammasome is 0.01 to 0.05 µM; in the assay with IL-6, 5 to 10 µM.

As to `Cc1cc(-c2ccc(OC(F)(F)F)cc2)nnc1N[C@@H]1CCCN(C)C1` [compound 81], the IC50 is > 1 µM against NLRP3 inflammasome and > 10 µM with IL-6.

Regarding `Cc1cc(N[C@@H]2CCCN(C)C2)nnc1-c1cccc(F)c1` [compound 45], the figures for the IC50 against NLRP3 inflammasome and with IL-6 were > 1 µM and > 10 µM, respectively.

Take `Cc1cc(-c2ccc(F)cc2C#N)nnc1N[C@@H]1CCCN(C)C1` [compound 97]: the IC50 against NLRP3 inflammasome was > 1 µM; in the assay on IL-6, > 10 µM.

For the molecule `Cc1cc(N[C@@H]2CCCN(C)C2)nnc1-c1ccc(F)cc1C#N` [compound 96], the IC50 at NLRP3 inflammasome is > 1 µM; in the assay with IL-6, > 10 µM.

`Cc1ccc(-c2nnc(N[C@@H]3CCCN(C)C3)cc2C(F)(F)F)cc1` [compound 13]: the IC50 on NLRP3 inflammasome lay in the range of 0.05 to 0.1 µM; in the assay with IL-6 it was 5 to 10 µM.

For `Cc1cc(N[C@@H]2CCCN(C3CC3)C2)nnc1-c1ccc(C(F)(F)F)cc1` [compound 68], the results for the IC50 against NLRP3 inflammasome and with IL-6 were ≤ 0.01 µM and > 10 µM, respectively.

As for `COc1cccc(-c2cc(C)c(N[C@@H]3CCCN(C)C3)nn2)c1` [compound 53], the IC50 against NLRP3 inflammasome was > 1 µM; in the assay on IL-6, > 10 µM.

With `Cc1cc(-c2ccccc2C(F)F)nnc1N[C@@H]1CCCN(C)C1` [compound 160], the concentration for half-maximal inhibition (IC50) on NLRP3 inflammasome was in the range of 0.5 to 1 µM; in the assay on IL-6, 1 to 5 µM.

As to `Cc1cc(Cl)ccc1-c1nnc(N[C@@H]2CCN(C)C2)cc1C` [compound 187], the IC50 is > 1 µM on NLRP3 inflammasome and > 10 µM with IL-6.

With `Cc1cc(N[C@@H]2CCCN(C)C2)nnc1-c1cccc(C#N)c1` [compound 50], the figures for the IC50 against NLRP3 inflammasome and in the assay on IL-6 were > 1 µM and > 10 µM, respectively.

Consider `CN1CCC[C@@H](Nc2ccc(-c3ccc(C(F)(F)F)cc3)nn2)C1` [compound 67], for which the IC50 against NLRP3 inflammasome was 0.1 to 0.5 µM; in the assay on IL-6, > 10 µM.

With `Cc1cc(N[C@H]2CCCN(C)C2)nnc1-c1ccc(C(F)(F)F)cc1` [compound 118], the IC50 on NLRP3 inflammasome was > 1 µM; with IL-6, > 10 µM.

Take `CCN1CCC[C@@H](Nc2cc(C(F)(F)F)c(-c3ccc(F)cc3)nn2)C1` [compound 195]: the IC50 is 0.01 to 0.05 µM on NLRP3 inflammasome and > 10 µM in the assay with IL-6.

As for `Cc1cc(C(F)(F)F)c(C)cc1-c1ccc(N[C@@H]2CCCN(C)C2)nn1` [compound 141], the values for the IC50 at NLRP3 inflammasome and with IL-6 were > 1 µM and > 10 µM, respectively.

For `Cc1cc(N[C@@H]2CCCN(C)C2)nnc1-c1ccc(F)cc1F` [compound 27], the IC50 was 0.1 to 0.5 µM against NLRP3 inflammasome and > 10 µM in the assay on IL-6.

Regarding `CN1CCC[C@@H](Nc2ccc(-c3ccc(Cl)cc3)nn2)C1` [compound 129], the IC50 against NLRP3 inflammasome is 0.05 to 0.1 µM; with IL-6 it was > 10 µM.

As to `Cc1cc(-c2ccc(Cl)cc2C(F)F)nnc1N[C@@H]1CCCN(C)C1` [compound 175], the figures for the IC50 against NLRP3 inflammasome and with IL-6 were ≤ 0.01 µM and > 10 µM, respectively.

Regarding `Cc1cc(N[C@@H]2C[C@H](F)CN(C)C2)nnc1-c1ccc(F)cc1` [compound 139], the IC50 lay within 0.5 to 1 µM against NLRP3 inflammasome and 5 to 10 µM in the assay on IL-6.

For the molecule `CCc1ccc(-c2nnc(N[C@@H]3CCCN(C)C3)cc2C)cc1` [compound 12], the IC50 against NLRP3 inflammasome is 0.01 to 0.05 µM; in the assay on IL-6, > 10 µM.

As to `Cc1cc(-c2nnc(N[C@@H]3CCCN(C)C3)cc2C)ccc1F` [compound 62], the IC50 was 0.01 to 0.05 µM at NLRP3 inflammasome and > 10 µM with IL-6.

Consider `Cc1cc(N[C@@H]2C[C@H](F)CN(C)C2)nnc1-c1ccc(C(F)(F)F)cc1` [compound 137], for which the concentration for half-maximal inhibition (IC50) was 0.1 to 0.5 µM on NLRP3 inflammasome and > 10 µM in the assay on IL-6.

Turning to `Cc1cc(N[C@H]2CN(C)CC(F)(F)C2)nnc1-c1ccc(F)cc1` [compound 119], the half-maximal inhibitory concentration (IC50) against NLRP3 inflammasome is > 1 µM; in the assay with IL-6, > 10 µM.

For the molecule `Cc1c(-c2ccc(N[C@@H]3CCCN(C)C3)nn2)ccc(C(F)(F)F)c1C` [compound 161], the IC50 against NLRP3 inflammasome is 0.1 to 0.5 µM; with IL-6 it was > 10 µM.

As for `CN1CCC[C@@H](Nc2ccc(-c3ccc(C(F)(F)F)cc3Cl)nn2)C1` [compound 20], the results for the IC50 against NLRP3 inflammasome and in the assay with IL-6 were 0.1 to 0.5 µM and > 10 µM, respectively.

Consider `Cc1cc(N(C)[C@@H]2CCN(C)C2)nnc1-c1ccc(C(F)(F)F)cc1` [compound 185], for which the figures for the IC50 on NLRP3 inflammasome and in the assay on IL-6 were > 1 µM and 1 to 5 µM, respectively.

As for `Cc1c(-c2ccc(C(F)(F)F)cc2)nnc(N[C@@H]2CCCN(C)C2)c1O` [compound 191], the results for the IC50 on NLRP3 inflammasome and with IL-6 were 0.01 to 0.05 µM and > 10 µM, respectively.

As to `Cc1cc(-c2ccc(Cl)cc2)nnc1N[C@@H]1CCCN(C)C1` [compound 128], the half-inhibitory concentration (IC50) against NLRP3 inflammasome is 0.1 to 0.5 µM; with IL-6, > 10 µM.

The record behind these values is patent US20250074888A1, “PYRIDAZINE DERIVATIVES AS MODULATORS OF NLRP3 INFLAMMASOME AND RELATED METHODS” (Neumora Therapeutics, Inc., priority 2021, published 2025).
